Assay results reported in ChEMBL document CHEMBL1151314, “Phenylethanoid glycosides from Digitalis purpurea and Penstemon linarioides with PKCalpha-inhibitory activity” (J Nat Prod, 1998).

Target: Protein kinase C alpha type (Homo sapiens, UniProt P17252)
Experiment: Inhibition of human recombinant PKCalpha

| SMILES | IC50 [µM] |
| --- | --- |
| COc1ccc(CCO[C@@H]2O[C@H](CO[C@@H]3O[C@@H](C)[C@H](O)[C@@H](O)[C@H]3O)[C@@H](OC(=O)/C=C/c3ccc(O)c(OC)c3)[C@H](O[C@@H]3O[C@@H](C)[C@H](O)[C@@H](O)[C@H]3O)[C@H]2O)cc1O | 125 |
| C[C@@H]1O[C@@H](O[C@@H]2[C@@H](O)[C@H](OCCc3ccc(O)c(O)c3)O[C@H](CO)[C@H]2OC(=O)/C=C/c2ccc(O)c(O)c2)[C@H](O)[C@H](O)[C@H]1O [ACETOSIDE] | 9.3 |
| O=C(/C=C/c1ccc(O)c(O)c1)O[C@H]1[C@H](O)[C@@H](O)[C@H](OCCc2ccc(O)c(O)c2)O[C@@H]1CO [CALCEOLARIOSIDE A] | 0.6 |
| O=C(/C=C/c1ccc(O)c(O)c1)OC[C@H]1O[C@@H](OCCc2ccc(O)c(O)c2)[C@H](O)[C@@H](O)[C@@H]1O [CALCEOLARIOSIDE B] | 4.6 |
| C[C@@H]1O[C@@H](OC[C@H]2O[C@@H](OCCc3ccc(O)c(O)c3)[C@H](O)[C@@H](O)[C@@H]2OC(=O)/C=C/c2ccc(O)c(O)c2)[C@H](O)[C@H](O)[C@H]1O [FORSYTHIASIDE] | 1.9 |
| COc1cc(/C=C/C(=O)O[C@H]2[C@H](O[C@@H]3O[C@@H](C)[C@H](O)[C@@H](O)[C@H]3O)[C@@H](O)[C@H](OCCc3ccc(O)c(O)c3)O[C@@H]2CO)ccc1O [LEUCOSCEPTOSIDE A] | 19 |
| O=C(/C=C/c1ccc(O)c(O)c1)OC[C@H]1O[C@@H](OCCc2ccc(O)c(O)c2)[C@H](O)[C@@H](O[C@@H]2O[C@H](CO)[C@@H](O)[C@H](O)[C@H]2O)[C@@H]1O [PLANTAINOSIDE D] | 14.8 |
| C[C@@H]1O[C@@H](OC[C@H]2O[C@@H](OCCc3ccc(O)c(O)c3)[C@H](O)[C@@H](O[C@@H]3O[C@@H](C)[C@H](O)[C@@H](O)[C@H]3O)[C@@H]2OC(=O)/C=C/c2ccc(O)c(O)c2)[C@H](O)[C@H](O)[C@H]1O [POLIUMOSIDE] | 24.4 |
